pIC50: −log10 of the molar value. Read-outs that look alike come from different tables or passages of the source.
What was measured:
[1] = molecular target: T1, Na^+, K^+ -ATPase receptor (Canis lupus familiaris, UniProt P50997); assay: displacement of the specific 3H-oubain binding from the Na+, K+-ATPase receptor; conditions: 3H-oubain displacement from purified Na+,K+-ATPase; read-out: Binding ^3 H-oubain displacement -log IC50 (converted)
T1 construct: Na^+, K^+ -ATPase receptor purified according to Jorghensen; from tissue
Excerpt: (§1) To test the affinity for the receptor site of the Na^+, K^+ -ATPase and the agonist or inhibitory activity on the enzyme, the following tests were used:
a) displacement of the specific ^3 H-oubain binding from the Na^+, K^+ -ATPase receptor purified according to Jorghensen (Jorghensen P., BBA, 1974, 356, 36) and Erdmann (Erdmann E. et al., Arzneim. Forsh, 1984, 34,1314);

[2] = molecular target: T2, purified Na^+, K^+ -ATPase (Canis lupus familiaris, UniProt P50997); assay: inhibition of the activity of the purified Na+, K+-ATPase (% of hydrolysis of 32P-ATP); assay type: biochemical; conditions: for IC50: purified Na+,K+-ATPase, 32P-ATP hydrolysis, read-out: Inhibitory activity -log IC50 (converted)
T2 construct: Na^+, K^+ -ATPase receptor purified according to Jorghensen; from tissue
Excerpt: as §1
b) inhibition of the activity of the purified Na^+, K^+ -ATPase measured as % of hydrolysis of ^32 P-ATP in the presence and in the absence of the tested compound (Doucet A. et al., Am. J. Physiol., 1986, 251, F851).

Na^+, K^+ -ATPase [3] = conditions: reported in DE 4,227,626; cited from earlier work
Na^+, K^+ -ATPase [4] = conditions: reported in DE 4,227,626; cited from earlier work; remark: listed apart in the source

SMILES	IC50 [1] [nM]	pIC50 [2]	IC50 [2] [nM]	inhibition of the enzyme Na^+, K^+ -ATPase (Na^+, K^+ -ATPase [3])	affinity for Na^+, K^+ -ATPase (Na^+, K^+ -ATPase [4])
CN(C)CCCON=C[C@H]1CC[C@H]2[C@@H]3CC=C4C[C@@H](O)CC[C@]4(C)[C@H]3CC[C@]12C (mixture of isomers) [I-l, (EZ)-17β-(3-dimethylaminopropoxyiminomethyl)-androst-5-en-3β-ol]	1260	4.60	–	–	–
C[C@]12CC[C@H]3[C@@H](CC=C4C[C@@H](O)CC[C@@]43C)[C@@H]1CC[C@@H]2C=NOCCCCN (mixture of isomers) [I-n, (EZ)-17β-(4-aminobutoxyiminomethyl)-androst-5-en-3β-ol]	2000	–	20000	–	–
CC12CCC(O)CC1CCC1C2CCC2(C)C(C=NO)CCC12O (stereo not drawn) [17-hydroxyiminomethyl-5β-androstan-3β-14β-diol]	–	–	–	inhibit the enzyme	good affinity
CN(C)CCO/N=C/[C@H]1CC[C@H]2[C@@H]3CC[C@@H]4C[C@@H](OCCN5CCCC5)CC[C@]4(C)[C@H]3CC[C@]12C [I-b, (E)-17β-[2-dimethylaminoethoxyiminomethyl]-3β-[2-(1-pirrolidinyl)ethoxy]-5β-androstane]	501	5.10	–	–	–
C[C@]12CC[C@H]3[C@@H](CC=C4C[C@@H](O)CC[C@@]43C)[C@@H]1CC[C@@H]2/C=N/OCCN [I-e, (E)-17β-(2-aminoethoxyiminomethyl)-androst-5-en-3β-ol]	158	–	2000	–	–
CN(C)CCO/N=C/[C@H]1CC[C@H]2[C@@H]3CC=C4C[C@@H](O)CC[C@]4(C)[C@H]3CC[C@]12C [I-f, (E)-17β-[2-dimethylaminoethoxyiminomethyl]-androst-5-en-3β-ol]	5010	4.10	–	–	–
C[C@]12CC[C@H]3[C@@H](CC=C4C[C@@H](O)CC[C@@]43C)[C@@H]1CC[C@@H]2/C=C/C=N/OCCN [I-g, (E,E)-17β-[3-(2-aminoethoxyimino)-1-propenyl]-androst-5-en-3β-ol]	251	–	1580	–	–
CN(C)CCO/N=C/C=C/[C@H]1CC[C@H]2[C@@H]3CC=C4C[C@@H](O)CC[C@]4(C)[C@H]3CC[C@]12C [I-h, (E,E)-17β-[3-(2-dimethylaminoethoxyimino)-1-propenyl]-androst-5-en-3β-ol]	1000	5.30	–	–	–
CN(C)CCCO/N=C/C=C/[C@H]1CC[C@H]2[C@@H]3CC=C4C[C@@H](O)CC[C@]4(C)[C@H]3CC[C@]12C [I-i, (E,E)-17β-[3-(3-dimethylaminopropoxyimino)-1-propenyl]-androst-5-en-3β-ol]	631	5.60	–	–	–
C[C@]12CC[C@H]3[C@@H](CC=C4C[C@@H](O)CC[C@@]43C)[C@@H]1CC[C@@H]2/C=N/OCCCN [I-m, (E)-17β-(3-aminopropoxyiminomethyl)-androst-5-en-3β-ol]	398	5.40	–	–	–
